Measured values: patent US4352804A, “Oxime ethers, their preparation and pharmaceutical compositions containing them” (ACF Chemiefarma NV, priority 1978, dated 1982)
Structures can show the parent of a compound that is named as a salt. Where two headings read alike, the source gives them in different places.

What was measured:
[1] = test system: indomethacin induced gastric damage in the rat; test: Anti-ulcer activity: inhibition of indomethacin induced gastric damage; assay type: in vivo; conditions: po, 5 h, Table 2, *50 mg/kg orally, 30 min prior to and 2 h after indomethacin 15 mg/kg s.c.
[2] = test system: Gastric Secretion, in the Pyloric Ligated Rat; test: Effects on gastric secretion in the pyloric ligated rat (Shay method); assay type: in vivo; conditions: intraduodenal, Table 1, 100 mg/kg i.d., 3 hours, mean of a number of experiments vs vehicle control
Procedure: 1. Effects on Gastric Secretion, in the Pyloric Ligated Rat.
The method as described by Shay et al. (Gastroenterol. 26, 906 (1945)) was used. After overnight starvation, the pylorus was ligated under halothane anaesthesia, and the compound under test or vehicle only administered intraduodenally and the rats allowed to recover. They were sacrificed three hours later and the gastric juice removed. After measurement of the volume of secretion, its hydrogen ion concentration [H^+ ] was determined by titration with 0.05 n NaOH to pH 7. Groups of 4-6 animals were used for each treatment and the inhibitory effects of the compound were ascertained by comparison of the mean values obtained with those from a simultaneously set up control group of animals which received vehicle only. Students `t` test was applied for significance between groups. The mean values for % inhibition obtained for a number of experiments are shown in the following Table 1, the dosage being 100 mg/kg i.d.

[3] = Farmaco, Ed. Sci. 19, 668-702 (1964); cited from earlier work
[4] = test system: indomethacin induced gastric damage in the rat; test: Anti-ulcer activity: inhibition of indomethacin induced gastric damage; assay type: in vivo; conditions: po, 5 h, Table 2, 100 mg/kg orally, 30 min prior to and 2 h after indomethacin 15 mg/kg s.c.
Procedure: This was assessed by the inhibition of indomethacin induced gastric damage in the rat according to the method of Elegbe (Israeli J. Med. Sci. 10, 1451 (1974)).
Rats were starved overnight, given indomethacin subcutaneously (15 mg/kg) and sacrificed 5 hours later. Stomachs were inflated with 0.9% saline, cut along the greater curvature, pinned out and scored for gastric damage by the following system:
Score 1-3 according to the degree of erythema and slight haemorrhage.
Score 4-6 according to the degree of mucosal erosion.
Score 7-9 according to the depth of gastric damage. Groups of 7 rats were used for each treatment level of the compound under test and a similar group receiving vehicle only was set up on each occasion of testing. Compound or vehicle was administered orally 30 minutes prior to, and at 2 hours after, dosing with indomethacin. Mean values per treatment were obtained using the above scoring system and the Mann Witney test applied for significance between such values. The mean inhibition of gastric damage from a number of experiments is shown in the following Table 2; the dosage being 100 mg/kg orally.

[5] = J. Pharm. Sci. 58, 138-141 (1969); cited from earlier work
[6] = read-out: % Inhibition, Volume (of gastric secretion)
[7] = read-out: % Inhibition, [H^+ ] (hydrogen ion concentration of gastric juice)

Compound | inhibition in vivo at 100 mg/kg [2, 6] [%] | inhibition in vivo at 100 mg/kg [2, 7] [%] | inhibition in vivo at 100 mg/kg [4] [%] | other results
CO/N=C(/c1ccccc1)c1cnccn1 [Compound 1, Phenyl pyrazinyl ketone, O-methyl oxime] | 77 | 23 |  | inhibition in vivo at 50 mg/kg [1]: 74%
C[N+](C)(C)CCON=C(c1ccccc1)c1ccccn1 [phenyl 2-pyridinyl ketone, O-dimethylaminoethyl oxime methiodide] |  |  |  | acetylcholine antagonistic activity [3]: showed acetylcholine antagonistic activity
CON=C(c1ccccc1)c1nccn1C [Compound 19, 1-methyl-2-imidazolyl phenyl ketone, O-methyl oxime] | 69 | 49 | 91 | 
phenyl 2-pyridinyl ketone, O-di(m)ethylaminoethyl oxime |  |  |  | anti-androgenic activity [5]: showed anti-androgenic activity; effective dose versus toxic dose [5]: the effective dose was very close to the toxic dose
CN(C)CCCON=C(c1ccccc1)c1ncc[nH]1 [Compound 31, 2-imidazolyl phenyl ketone, O-3-N,N-dimethylaminopropyl oxime] | 80 | 72 | 56 | 
CON=C(c1ccccc1)c1nc2ccccc2[nH]1 [Compound 20, 2-benzimidazolyl phenyl ketone, O-methyl oxime] |  |  | 78 | 
CON=C(c1cnccn1)c1ccco1 [Compound 23, 2-furanyl pyrazinyl ketone, O-methyl oxime] | 67 |  | 98 | 
CN(C)CCCON=C(c1ccccc1)c1cnccn1 [Compound 27, phenyl pyrazinyl ketone, O-3-N,N-dimethylaminopropyl oxime.1 maleic acid] | 67 | 49 | 92 | 
CO/N=C(/c1ccc(F)cc1)c1cnccn1 [Compound 7, 4-fluorophenyl pyrazinyl ketone, O-methyl oxime] | 72 |  | 96 | 
C#CCON=C(c1ccccc1)c1cnccn1 [Compound 26, phenyl pyrazinyl ketone, O-propargyl oxime] |  |  | 53 | 
CN(C)CCON=C(c1ccccc1)c1cnccn1 [Compound 28, phenyl pyrazinyl ketone, O-2,N,N-dimethylaminoethyl oxime.1 maleic acid] | 56 | 59 |  | 
CO/N=C(/c1ccccc1)c1ncc[nH]1 [Compound 18, 2-imidazolyl phenyl ketone, O-methyl oxime] | 87 |  | 91 | 
CO/N=C(\c1ccccc1)c1cn2ccccc2n1 [Compound 10, 2-imidazo[1,2-a]pyridinyl phenyl ketone, O-methyl oxime] | 66 | 23 |  | inhibition in vivo at 50 mg/kg [1]: 89%
CN(C)CCCON=C(c1ccccc1)c1nccn1C [Compound 32, 1-methyl-2-imidazolyl phenyl ketone, O-3-N,N-dimethylaminopropyl oxime] | 83 | 41 |  | 
CON=C(c1ccccc1)c1c(C)nc2ccccn12 [Compound 14, 2-methyl-3-imidazo[1,2-a]pyridinyl phenyl ketone, O-methyl oxime.HCl] | 59 | 23 | 78 | 
CO/N=C(/c1ccc(Cl)cc1)c1cnccn1 [Compound 2, 4-chlorophenyl pyrazinyl ketone, O-methyl oxime] | 68 | 21 | 68 | 

Compound | inhibition in vivo at 100 mg/kg [2, 6] [%] | inhibition in vivo at 100 mg/kg [2, 7] [%] | inhibition in vivo at 100 mg/kg [4] [%] | other results
CO/N=C(/c1ccccc1)c1nccs1 [Compound 22, phenyl 2-thiazolyl ketone, O-methyl oxime.HBr] | 68 |  | 78 | 
N#CCON=C(c1ccccc1)c1cnccn1 [Compound 24, Phenyl pyrazinyl ketone, O-cyanomethyl oxime] |  |  | 93 | 
CO/N=C(/c1ccccc1)c1cn2ccccc2n1 [Compound 11, 2-imidazo[1,2-a]pyridinyl phenyl ketone, O-methyl oxime] | 77 |  |  | inhibition in vivo at 50 mg/kg [1]: 67%
CN(C)CCCO/N=C(\c1ccccc1)c1nccs1 [Compound 34, phenyl 2-thiazolyl ketone, O-3-N,N-dimethylaminopropyl oxime.1 fumaric acid] | 82 | 42 |  | 
COc1ccc(C(=NOCCN(C)C)c2cccs2)cc1 [4-methoxyphenyl 2-thienyl ketone, O-dimethylaminoethyl oxime] |  |  |  | effective dose versus toxic dose [5]: the effective dose was very close to the toxic dose
CO/N=C(\c1ccccc1)c1cnc2ccccn12 [Compound 12, 3-imidazo[1,2-a]pyridinyl phenyl ketone, O-methyl oxime] | 55 | 25 | 61 | 
CO/N=C(\c1ccccc1)c1nccs1 [Compound 21, phenyl 2-thiazolyl ketone, O-methyl oxime] | 57 |  | 89 | 
CN(C)CCCON=C(c1ccccc1)c1nc2ccccc2s1 [Compound 33, 2-benzothiazolyl phenyl ketone, O-3-N,N-dimethylaminopropyl oxime.1 fumaric acid] | 55 | 38 | 62 | 
CO/N=C(\c1ccc(F)cc1)c1cnccn1 [Compound 8, 4-fluorophenyl pyrazinyl ketone, O-methyl oxime] | 72 |  | 96 | 
CN(C)CCCON=C(c1ccccc1)c1ccc2ccccc2n1 [Compound 30, phenyl 2-quinolinyl ketone, O-3-N,N-dimethylaminopropyl oxime.1 fumaric acid] | 72 | 37 | 79 | 
CN(C)CCON=C(Cc1ccccn1)c1ccccc1 [phenyl 2-picolinyl ketone, O-dimethylaminoethyl oxime] |  |  |  | anti-androgenic activity [5]: showed anti-androgenic activity; effective dose versus toxic dose [5]: the effective dose was very close to the toxic dose
CN(C)CCCON=C(c1ccccc1)c1cnc2ccccn12 [Compound 29, 3-imidazo[1,2-a]pyridinyl phenyl ketone, O-3-N,N-dimethylaminopropyl oxime.1/2 fumaric acid] |  |  | 75 | 
CON=C(c1ccccc1)c1c(C)cc2ccccn12 [Compound 9, 2-methyl-3-indolizinyl phenyl ketone, O-methyl oxime] | 83 | 52 |  | 
CO/N=C(\c1ccccc1)c1ncc[nH]1 [Compound 17, 2-imidazolyl phenyl ketone, O-methyl oxime] | 55 | 26 | 100 | 
C=CCON=C(c1ccccc1)c1cnccn1 [Compound 25, phenyl pyrazinyl ketone, O-allyl oxime] | 87 | 27 | 56 | 
